Experimental data as given in a compilation of properties of binary mixtures (doi:10.1016/j.molliq.2020.114573).

Assay: xn = mol fraction of the nth substance listed
Conditions: 101.3 kPa

CC1COC(=O)O1 (centres undefined) + CCCC[n+]1ccn(C)c1.O=S(=O)([N-]S(=O)(=O)C(F)(F)F)C(F)(F)F
viscosity [mPa·s]
Conditions	x2 = 0	x2 = 0.1013	x2 = 0.1557	x2 = 0.3071	x2 = 0.4128	x2 = 0.5045	x2 = 0.6	x2 = 0.7	x2 = 0.8079	x2 = 0.8776
288.15 K	3.063	5.14	6.77	12.5	18.43	24.64	32.48	43.74	55.8	64.4
293.15 K	2.746	4.535	5.9	10.63	15.39	20.32	–	35.25	44.52	–
298.15 K	2.476	–	5.19	9.12	13.04	–	21.83	–	36.14	41.16
303.15 K	2.246	3.605	4.596	7.92	11.15	–	18.29	24.03	–	–
308.15 K	2.049	–	–	6.95	–	–	15.52	20.24	24.9	28.07
313.15 K	1.879	2.945	3.69	6.14	8.42	–	13.31	17.63	21.07	–
318.15 K	1.73	2.683	3.339	5.47	7.42	9.33	11.54	–	18.27	20.13
323.15 K	1.6	2.455	3.038	4.91	–	8.21	10.09	–	16.06	17.66
328.15 K	1.486	2.258	2.778	4.422	5.88	7.29	8.9	11.5	13.99	15.53
333.15 K	1.385	2.085	2.552	4.014	5.3	6.52	7.91	10.04	12.18	–
338.15 K	1.294	1.931	2.354	–	4.79	5.86	7.07	8.82	10.66	11.9
343.15 K	1.213	1.796	2.18	3.353	4.359	5.3	6.36	7.8	9.39	10.46
348.15 K	–	1.676	–	3.085	3.984	4.82	5.76	6.96	8.33	9.23

CC1COC(=O)O1 (centres undefined) + CC[n+]1ccn(C)c1.O=S(=O)([N-]S(=O)(=O)C(F)(F)F)C(F)(F)F
x2 = 0
Conditions	viscosity [mPa·s]
288.15 K	3.063
293.15 K	2.746
298.15 K	2.476
308.15 K	2.049
313.15 K	1.879
323.15 K	1.6
328.15 K	1.486
333.15 K	1.385
343.15 K	1.213
348.15 K	1.14

CC1COC(=O)O1 (centres undefined) + CC[n+]1ccn(C)c1C.O=S(=O)([N-]S(=O)(=O)C(F)(F)F)C(F)(F)F
x2 = 0
Conditions	viscosity [mPa·s]
293.15 K	2.746
298.15 K	2.476
303.15 K	2.246
313.15 K	1.879
318.15 K	1.73
323.15 K	1.6
328.15 K	1.486
333.15 K	1.385
338.15 K	1.294
343.15 K	1.213

CC1COC(=O)O1 (centres undefined) + FC(S(=O)(=O)[N-]S(=O)(=O)C(F)(F)F)(F)F.C(CCC)N1C(=[N+](C=C1)C)C
x2 = 0
Conditions	viscosity [mPa·s]
298.15 K	2.476
303.15 K	2.246
308.15 K	2.049
313.15 K	1.879
318.15 K	1.73
323.15 K	1.6
328.15 K	1.486
333.15 K	1.385
338.15 K	1.294
348.15 K	1.14
